These are literature values, as cited in patent US20220160728A1, “GENE THERAPY METHODS” (Homology Medicines, Inc., priority 2020, published 2022).

For this data set the following is noted: corticosteroid equivalency conversion values (prednisolone equivalents).
For `CC(=O)OCC(=O)[C@@]1(O)CC[C@H]2[C@@H]3CCC4=CC(=O)CC[C@]4(C)[C@H]3C(=O)C[C@@]21C` [Cortisone acetate], the Equivalent dose is 25 mg.

On to `C[C@]12C=CC(=O)C=C1CC[C@@H]1[C@@H]2[C@@H](O)C[C@@]2(C)[C@H]1CC[C@]2(O)C(=O)CO` [Prednisolone], for which the Equivalent dose was 5 mg.

As for `C[C@]12C=CC(=O)C=C1CC[C@H]1[C@@H]3C[C@@H](O)[C@](O)(C(=O)CO)[C@@]3(C)C[C@H](O)[C@@]12F` [Triamcinolone], the Equivalent dose is recorded as 4 mg.

For `C[C@]12CCC(=O)C=C1CC[C@@H]1[C@@H]2[C@@H](O)C[C@@]2(C)[C@H]1CC[C@]2(O)C(=O)CO` [Hydrocortisone (cortisol), Hydrocortisone], the Equivalent dose is given as 20 mg.
